In patent US12473305B2, “Pyrazole boronic acid compound, pharmaceutical composition containing same, and uses thereof” (BEIJING SONGRUN PHARMACEUTICAL TECHNOLOGY CO., LTD., priority 2020, dated 2025):
Structures can show the parent of a compound that is named as a salt. Values belong to the compound of their own block, whether it stands above or below them.

Assays:
[1] = system: liver cancer cell line HepG2; assay: CellTiter-Glo tumor cell proliferation, HepG2; format: cell-based, human
Description: (§1) The effect of compounds on tumor cell proliferation was detected by CellTiter-Glo method. Human melanoma cell line A375, non-small cell lung cancer cell line A549, human lung adenocarcinoma cell line H1299, colorectal cancer cell line HCT116, liver cancer cell line HepG2 and gastric cancer cell line MGC80-3 were cultured in vitro. The cells were collected after growing to the logarithmic growth phase, centrifuged at 1000 rpm for 5 min, and suspended in an appropriate amount of medium after discarding the supernatant, and the cell concentration was adjusted to 2×10^4/mL. The cell suspension was inoculated onto the 384-well cell culture plate, with 50 μL per well. After being cultured in a cell incubator (37° C., 5% CO2) for 24 h, 5 μL of drug diluted by the cell culture medium was added into each well for the treatment group. Each drug was provided in triplicate. After 72 h incubation in the incubator, 20 μL of CellTiter-Glo was added into each well, and the relative luminescence unit (RLU) was measured with Multimode Microplate Reader Varioskan Flash (Thermo Scientific, USA) after placed at 37° C. for 20 min, and compared with the RLU of the control group. SigmaPlot 10.0 software was used to calculate the inhibition rate and IC50 value.

[2] = system: Human melanoma cell line A375; assay: CellTiter-Glo tumor cell proliferation, A375; format: cell-based; settings: Homo sapiens, A-375, 72 h
How it was run: (§2)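 Cells seeded at 2×10^4/mL, grown 24 h at 37° C, 5% CO2, then treated in triplicate with medium-diluted compound for 72 h. CellTiter-Glo luminescence read after 20 min at 37° C; inhibition versus untreated control RLU, IC50 calculated.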

[3] = system: colorectal cancer cell line HCT116; assay: CellTiter-Glo tumor cell proliferation, HCT116; format: cell-based, human; settings: Homo sapiens, HCT-116, 72 h
How it was run: as §2

[4] = system: human lung adenocarcinoma cell line H1299; assay: CellTiter-Glo tumor cell proliferation, H1299; format: cell-based; settings: NCI-H1299, 72 h
Description: as §1

[5] = system: non-small cell lung cancer cell line A549; assay: CellTiter-Glo tumor cell proliferation, A549; format: cell-based, human; settings: Homo sapiens, A549, 72 h, read-out: Inhibition rate A549 (%)
How it was run: as §2

IC50 ([1]; Homo sapiens, HepG2, 72 h): 0.101 µM
Compound: CC(C)C[C@H](NC(=O)Cn1nc(-c2cccc(OCCCN3CCN(c4ccccc4)CC3)c2)cc1-c1ccccc1)B(O)O [Compound 40, (R)-(3-methyl-1-(2-(5-phenyl-3-(3-(3-(4-phenylpiperazin-1-yl)propoxy)phenyl)-1H-pyrazol-1-yl)acetamido)butyl)boronic acid dihydrochloride]

IC50 ([2]; CellTiter-Glo): 8.91 µM | IC50 ([3]; CellTiter-Glo): 6.53 µM | IC50 [4]: 7.19 µM
Compound: CC(C)C[C@H](NC(=O)Cn1nc(-c2ccccc2OS(=O)(=O)c2cccc(C(F)(F)F)c2)cc1-c1ccccc1)B(O)O [Compound 1, (R)-(3-methyl-1-(2-(5-phenyl-3-(2-(((3-(trifluoromethyl)phenyl)sulfonyl)oxy)phenyl)-1H-pyrazol-1-yl)acetamido)butyl)boronic acid]
inhibition at 1 µM ([2]; 1 μM, read-out: Inhibition rate A375 (%)): 5.8% | inhibition at 10 µM ([2]; 10 μM, read-out: Inhibition rate A375 (%)): 98.4% | inhibition at 1 µM ([3]; 1 μM, read-out: Inhibition rate HCT116 (%)): 13.1% | inhibition at 10 µM ([3]; 10 μM, read-out: Inhibition rate HCT116 (%)): 98% | inhibition at 1 µM ([5]; 1 μM): 11.9% | inhibition at 10 µM ([5]; 10 μM): 66.4%

IC50 ([1]; 72 h): 0.06 µM
Compound: ((1R)-1-(2-(3-(3-(2-(S,S-2,6-dimethylmorpholino)ethoxy)phenyl)-5-phenyl-1H-pyrazol-1-yl)acetamido)-3-methylbutyl)boronic acid hydrochloride [Compound 37]
